According to patent US6596878B2, “Methods and compositions for inhibiting cell proliferative disorders” (Yissum Research & Development Company of the Hebrew …, priority 1994, dated 2003):
Where “and” joins values, the source holds several entries; their conditions need not be identical. Identical values can stand only once. Like-named read-outs stand apart in the source and are kept apart here.

Molecular target: T1, human EGF receptor (Homo sapiens, UniProt P00533)
T1 construct: expressed in transfected cells; host or cells: NIH3T3 clone C7 (EGFR/C7; mouse fibroblasts)
Experiment: EGF-receptor whole cell kinase assay (EGFR-3T3)
Type: cell-based
Protocol: The following target cells were used for cellular kinaseassays: NIH3T3 clone C7 (Honegger et al., supra) engineered to over-express human EGF receptor; NIH3T3 cells engineered to over-express a chimeric receptor containing the EGFR extracellular domain and the HER2 intracellular kinase domain; the human mammary carcinoma line BT474 (ATCC HTB2) expressing HER2; and the human glioblastoma line U1242 that expresses PDGFR-β. Growth assays were carried out using human mammary epithelial SKBR3 (ATCC HTB30) cells, SKOV3 (ATCC HTB77) human ovarian cancer cell line, A431 cells, MCF7 human breast carcinoma cells, MCF7 cells overexpress the HER2 kinase (MCF7-HER2), NIH3T3 cells, and NIH3T3 cells overexpressing the HER2 kinase (3T3-HER2).
Unless otherwise stated the effect of various compounds on receptor tyrosine kinases were assayed as described in this section.
1. EGF-receptor Whole Cell Kinase Assay
EGFR kinase activity (EGFR-3T3 assay) in whole cells was measured as described below:
The following protocol was used:
A. Coat ELISA plates (Corning, 96 well, Cat. #25805-96) with 05-101 antibody at 0.5 μg per well in PBS, 150 μl final volume/well, and store overnight at 4° C. Coated plates are good for up to 10 days when stored at 4° C.
B. On day of use, remove coating buffer and replace with blocking buffer (5% Carnation Instant Non-Fat Dry Milk in PBS). Incubate the plate, shaking, at room temperature (about 23° C. to 25° C.) for 30 minutes. Just prior to use, remove blocking buffer and wash plate 4 times with TBST buffer.
A. EGFR/C7 cell line (Honegger, et al., Cell 51:199-209, 1987) can be use for this assay.
B. Choose dishes having 80-90% confluence for the experiment. Trypsinize cells and stop reaction by adding 10% CS DMEM medium. Suspend cells in DMEM medium (10% CS DMEM medium) and centrifuge once at 1000 rpm, and once at room temperature for 5 minutes.
C. Resuspend cells in seeding medium (DMEM, 0.5% bovine serum), and count the cells using trypan blue. Viability above 90% is acceptable. Seed cells in DMEM medium (0.5% bovine serum) at a density of 10,000 cells per well, 100 μl per well, in a 96 well microtiter plate. Incubate seeded cells in 5% CO2 at 37° C. for about 40 hours.
A. Check seeded cells for contamination using an inverted microscope. Dilute drug stock (10 mg/ml in DMSO) 1:10 in DMEM medium, then transfer 5 μl to a test well for a final drug dilution of 1:200 and a final DMSO concentration of […]. Control wells receive DMSO alone. Incubate in 5% CO2 at 37° C. for one hour.
B. Prepare EGF ligand: dilute stock EGF in DMEM so that upon transfer of 10 μl dilute EGF (1:12 dilution), 25 nM final concentration is attained.
C. Prepare fresh HNTG* sufficient for 100 μl per well; and place on ice.
D. After two hours incubation with drug, add prepared EGF ligand to cells, 10 μl per well, to yield a final concentration of 25 nM. Control wells receive DMEM alone. Incubate, shaking, at room temperature, for 5 minutes.
E. Remove drug, EGF, and DMEM. Wash cells twice with PBS. Transfer HNTG* to cells, 100 μl per well. Place on ice for 5 minutes. Meanwhile, remove blocking buffer from other ELISA plate and wash with TBST as described above.
F. With a pipette tip securely fitted to a micropipettor, scrape cells from plate and homogenize cell material by repeatedly aspirating and dispensing the HNTG* lysis buffer. Transfer lysate to a coated, blocked, and washed ELISA plate. Incubate shaking at room temperature for one hour.
G. Remove lysate and wash 4 times with TBST. Transfer freshly diluted anti-Ptyr antibody to ELISA plate at 100 μl per well. Incubate shaking at room temperature for 30 minutes in the presence of the anti-Ptyr antiserum (1:3000 dilution in TBST).
H. Remove the anti-Ptyr antibody and wash 4 times with TBST. Transfer the freshly diluted TAGO anti-rabbit IgG antibody to the ELISA plate at 100 μl per well.

[1] = Table V, read-out: Estimated IC50 Cellular Kinase Assays EGFR (EGF-3T3)
[2] = Table VI, cellular kinase assay, read-out: EGFR-3T3

| Compound | IC50 [1] | IC50 [2] |
| --- | --- | --- |
| N#C/C(=C\c1ccc(O)c(O)c1)C(=O)Nc1cccc(C(F)(F)F)c1 [Compound M15] | > 100 µM | > 100 µM |
| CC(C)(C)c1cc(/C=C(\C#N)C(=O)NCCCc2ccccc2)cc(C(C)(C)C)c1O [Compound M20, (E)-3-(3,5-di-t-Butyl-4-hydroxyphenyl)-2-[(3-phenyl-n-propyl)aminocarbonyl]acrylonitrile] | – | > 100 µM |
| CC(C)c1cc(/C=C(\C#N)C(=O)NCCCc2ccccc2)cc(C(C)C)c1O [Compound M21, (E)-3-(3,5-Diisopropyl-4-hydroxyphenyl)-2-[(3-phenyl-n-propyl)aminocarbonyl]acrylonitrile] | – | > 100 µM |
| CC(C)c1cc(/C=C(\C#N)S(=O)(=O)c2ccccn2)cc(C(C)C)c1O [Compound M26] | – | > 100 µM |
| Cc1cc(/C=C(\C#N)S(=O)(=O)c2ccccc2)cc(C)c1O [Compound M31] | – | > 100 µM |
| CC(C)(C)c1cc(/C=C(\C#N)S(=O)(=O)c2ccccc2)cc(C(C)(C)C)c1O [Compound M33, (E)-3-(3,5-di-t-Butyl-4-hydroxyphenyl)-2-(phenylsulfonyl)acrylonitrile] | – | > 100 µM |
| CC(C)(C)c1cc(/C=C(\C#N)S(=O)(=O)c2ccccn2)cc(C(C)(C)C)c1O [Compound M34, (E)-3-(3,5-di-t-Butyl-4-hydroxyphenyl)-2-[(pyrid-2-yl)sulfonyl]acrylonitrile] | – | > 100 µM |
| CC(C)(C)c1cc(/C=C(\C#N)C(=O)Nc2ccc(C(F)(F)F)cc2)cc(C(C)(C)C)c1O [Compound M35, (E)-3-(3,5-di-t-Butyl-4-hydroxyphenyl)-2-[(4-trifluoromethyl)phenylaminocarbonyl]acrylonitrile] | – | > 100 µM |
| (E,E)-2-[[-Cyano-2-(3,5-diisopropyl-4-hydroxyphenyl)ethenyl]sulfonyl]-3-(3,5-di-t-butyl-4-hydroxyphenyl)acrylonitrile [Compound M37] | – | > 100 µM |

Further lines, results first:

| IC50 [1] | IC50 [2] | Compound |
| --- | --- | --- |
| 40 µM | 21 µM | CC(C)(C)c1cc(/C=C(\C#N)C(N)=S)cc(C(C)(C)C)c1O [Compound M11] |
| > 100 µM | > 100 µM | N#C/C(=C\c1ccc(O)c(O)c1)C(=S)NCc1ccccc1 [Compound M13] |
| 4 µM and 4.4 µM | 9 µM | N#C/C(=C\c1cc(O)c(O)c(I)c1)C(=O)NCCCc1ccccc1 [Compound M16] |
| – | > 50 µM | CC(C)c1cc(C=C(C#N)C(N)=C(C#N)C#N)cc(C(C)C)c1O [Compound M22, (E)-2-(1-Amino-2,2-dicyanoethenyl-3-(3,5-diisopropyl-4-hydroxyphenyl)acrylonitrile)] |
| – | > 50 µM | CC(C)c1cc(/C=C(\C#N)C(=S)NCCCc2ccccc2)cc(C(C)C)c1O [Compound M24, (E)-3-(3,5-Diisopropyl-4-hyrdroxyphenyl)-2-[(3-phenyl-n-propyl)aminothiocarbonyl]acrylonitrile] |
| – | > 50 µM | CC(C)c1cc(/C=C(\C#N)S(=O)(=O)CC#N)cc(C(C)C)c1O [Compound M27] |
| – | > 50 µM | CC(C)c1cc(/C=C(\C#N)S(=O)(=O)/C(C#N)=C/c2cc(C(C)C)c(O)c(C(C)C)c2)cc(C(C)C)c1O [Compound M29] |
| – | 61 µM | CC(C)c1cc(/C=C(\C#N)S(=O)(=O)c2ccccc2)cc(C(C)C)c1O [Compound M30] |
| – | 64 µM | Cc1cc(/C=C(\C#N)S(=O)(=O)c2ccccn2)cc(C)c1O [Compound M32] |
| – | 56 µM | CC(C)(C)c1cc(/C=C(\C#N)S(=O)(=O)CC#N)cc(C(C)(C)C)c1O [Compound M36, (E)-3-(3,5-di-t-Butyl-4-hydroxyphenyl)-2-(cyanomethylsulfonyl)acrylonitrile] |
